Data: patent US11879137B2, “Treatment of type 1 diabetes and autoimmune diseases or disorders” (THE CHILDREN'S MEDICAL CENTER CORPORATION, priority 2017, dated 2024)

Tested on: PD-L1 on CD34+ cells
Experiment: Prostaglandin library screening and FACS of PD-L1 on human CD34+ cells
Assay type: cell-based
Details: for PD-L1 expression by FACS analysis: CD34+ cells, 10 μM pulsed at 24 and 48 hours
Description: FIGS. 17A-17J show prostaglandins enhance PD-L1 expression on human CD34^+ cells. (FIG. 17A-17B) Results of screening of a prostaglandin small molecule library tested for the ability to upregulate PD-L1 (MFI) on CD34^+ cells obtained from T1D patients. The schematic of the experimental design is shown in (A). The 3-color coding shown in (FIG. 17B) represents lowest PD-L1 MFI values (blue), median PD-L1 MFI values (pink) and highest PD-L1 MFI values (red). (FIG. 17C-17D) Representative flow cytometric analysis and quantitative bar graph of PD-L1 expression on CD34^+ cells from T1D patients pre- and post-pharmacologic modulation with PGE2 as compared to CD34^+ cells obtained from healthy controls. (FIG. 17E) PD-L1 and CXCR4 expression (mRNA) fold change was quantified for CD34^+ cells pre- and post-modulation with PGE2. (FIG. 17F) Migration assay using CD34^+ cells pre- and post-modulation with PGE2. (FIG. 17G) Confocal imaging of CD34^+ cells pre- and post-modulation with PGE2, showing DAPI (in blue) and PD-L1 (in green) staining. 63× magnification. Scale bar, 50 (FIG. 17H) IDO-1 expression (mRNA) fold change was quantified for CD34^+ cells pre- and post-modulation with PGE2. (FIG. 17I-17J) Representative flow cytometric analysis (FIG. 17I) and quantitative bar graph (FIG. 17J) of PD-L1 expression on CD34^+ cells from T1D patients pre- and post-pharmacologic modulation with 4 small molecule PGE2 agonists. All data are expressed as mean±SEM. *P<0.05, **P<0.001. Abbreviations: MFI, mean fluorescence intensity.
Pharmacological modulation of human CD34+ cells. 1×105 of isolated human CD34+ HSPCs (purity 99%) were cultured in 200 μl of StemSpan SFEM II media (SEMCELL Technologies Inc., Cambridge, MA, USA), and each compound in the Prostaglandin Screening Library II (Cayman Chemicals, Ann Arbor, MI), was added individually at day 0 and at day 1 at a concentration of 10 μM as previously reported by the inventors and others (9, 21). In another assay, isolated CD34+ cells from freshly isolated human PBMCs or from cryopreserved PBMCs, and processed as described earlier, were cultured in the presence of a cocktail of cytokines containing: 10 μg/ml heparin (SEMCELL Technologies Inc., Cambridge, MA, USA), 10 ng/ml human SCF (Miltenyi Biotec, San Diego, CA), 20 ng/ml human TPO (Miltenyi Biotec, San Diego, CA), 10 ng/ml human FGF-1 (Miltenyi Biotec, San Diego, CA), 100 ng/ml IGFBP2 (R&D Systems, Inc., Minneapolis, MN), and 500 ng/ml Angptl3 (R&D Systems, Inc., Minneapolis, MN). PGE2 (PromoKine, PromoCell Gmbh, Germany) was added by pulsing the culture at 0, 24h, 72h and 6 days with 2 μl of diluted PGE2 (10 μM). Cells were cultured for 7 days at 37° C. in 5% CO2, and CD34+ cells were then subjected to FACS analysis and were run on a FACSCelesta™ (Becton Dickinson, Franklin Lakes, NJ). Data were analyzed using FlowJo software version 8.7.3 (Treestar, Ashland, OR). The different cytokines used here and their related concentration as well as the choice of the incubation timing was used as previously reported in the literature (22).
Prostaglandin library screening. PGE2 has been described as a small molecule known to enhance the homing and engraftment of HSPCs. It was therefore sought to screen all known types of prostaglandins using the Prostaglandin Screening Library II, which contains 64 small molecules. Each small molecule contained in the library was first screened for its capacity to upregulate PD-L1 in human CD34+ cells isolated from T1D patients (FIG. 17A-17B). CD34+ cells isolated from T1D patients were cultured in StemSpan SFEMII and pulsed with each PG (prostaglandin) small molecule contained in the aforementioned library at a concentration of 10 μM at 24 and 48h. Using FACS analysis, the MFI (mean fluorescence intensity) of PD-L1 expression was calculated following treatment with each small molecule used to modulate CD34+ cells as compared to untreated/unmodulated CD34+ cells (FIG. 17B). […]

Compound | capacity to upregulate PD-L1 (MFI) in library screening (10 μM, CD34+ cells from T1D patients) | PD-L1 expression by FACS analysis
CCCCC(C)(C)[C@H](O)/C=C/[C@H]1[C@H](O)CC(=O)[C@@H]1C/C=C\CCCC(=O)O [16,16-dimethyl PGE2] | strongest capacity | robust upregulation
CCCCC[C@H](O)/C=C/[C@H]1[C@H](O)CC(=O)[C@@H]1C/C=C\CCCC(=O)O [PGE2, prostaglandin E2] | – | slight increase
